Measured values as given in patent publication US20240148821A1, “PHARMACEUTICAL USE OF CYCLIC PEPTIDE COMPOUND” (CHUGAI SEIYAKU KABUSHIKI KAISHA, priority 2021, published 2024).
Numbered stars: 1 amine (or outer) side, 2 acyl side, 3 side chain; on linkers, the order of the positions; unused ones are H or OH. Bridge positions count the residues as written; N and C are the ends. Square brackets hold non-standard residues; d marks the D form. Peptide text beside a SMILES is read from it. * marks the point of attachment. hPhe(3-Cl-4-CF3) = N[C@@H](CCc1ccc(C(F)(F)F)c(Cl)c1)C(=O)O; hPhe(4-CF3) = N[C@@H](CCc1ccc(C(F)(F)F)cc1)C(=O)O; NMePhe(4-Cl) = CN[C@@H](Cc1ccc(Cl)cc1)C(=O)O; NMePhe(4-Me) = CN[C@@H](Cc1ccc(C)cc1)C(=O)O; NMedβ3hAla = C[C@H](CC(=O)[*:2])N(C)[*:1]; NMeGly(cBu) = CN[C@H](C(=O)O)C1CCC1; NMeCha = CN[C@@H](CC1CCCCC1)C(=O)O; cisHyp = O=C(O)[C@@H]1C[C@H](O)CN1; NMeChg = CN[C@H](C(=O)O)C1CCCCC1; NMeI = CC[C@H](C)[C@H](NC)C(=O)O; NMeT = CN[C@H](C(=O)O)[C@@H](C)O; NMeD = CN[C@@H](CC(=O)O)C(=O)O; NMeL = CN[C@@H](CC(C)C)C(=O)O; NMeNva = CCC[C@H](NC)C(=O)O; NMeV = CN[C@H](C(=O)O)C(C)C; d(β3hA) = C[C@@H](N)CC(=O)O; NMeS = CN[C@@H](CO)C(=O)O; NMeA = CN[C@@H](C)C(=O)O; NMeAib = CNC(C)(C)C(=O)O; Piperidide = C1CCN(*)CC1; dNMeA = CN[C@H](C)C(=O)O; Ac5c = NC1(C(=O)O)CCCC1; Aze = O=C(O)[C@@H]1CCN1; Ethyl(2,2-F2) = FC(F)C*; NBuGly = CCCCNCC(=O)O; Aib = CC(C)(N)C(=O)O; Cyclopropyl = C1CC1*; Sar = CNCC(=O)O

The molecules below were run against protein-protein interaction between Kras and SOS1 (biotin-tagged human Kras loaded with GDP, His-tagged human SOS1) (Homo sapiens (Human), UniProt P01116, G12D) (assay: Protein-protein interaction inhibition between Kras and SOS1 (KrasG12D-SOS PPI) using AlphaScreen). Conditions: AlphaScreen; biotin-tagged human Kras loaded with GDP, His-tagged human SOS1; read-out: KRAS G12D-SOS PPI IC50.
Format: biochemical
Molecule `CC[C@H](C)[C@@H]1NC(=O)[C@H](CC(C)C)N(C)C(=O)C[C@@H](C(=O)N(C)C)N(C)C(=O)[C@H]([C@@H](C)CC)N(C)C(=O)C2(CCCC2)NC(=O)[C@@H]2CCCN2C(=O)[C@H](CCc2ccc(C(F)(F)F)c(Cl)c2)NC(=O)CN(C)C(=O)[C@H](C2CCC2)N(C)C(=O)[C@@H]2CCN2C(=O)[C@H](C)N(C)C1=O` [Compound 1961] ([NMeL]I[NMeA][Aze][NMeGly(cBu)][Sar][hPhe(3-Cl-4-CF3)]P[Ac5c][NMeI][NMeD]-NMe2; lactam N-11) has an IC50 of 1.8 nM. `CC[C@H](C)[C@@H]1NC(=O)[C@H](CC(C)C)N(C)C(=O)C[C@@H](C(=O)N2CCCCC2)N(C)C(=O)[C@H]([C@@H](C)OC)N(C)C(=O)C2(CCCC2)NC(=O)[C@@H]2CCCN2C(=O)[C@H](CCc2ccc(C(F)(F)F)c(Cl)c2)NC(=O)CN(C)C(=O)[C@H](CC2CCCCC2)N(C)C(=O)[C@@H]2CCN2C(=O)[C@H](C)N(C)C1=O` [Compound 639] ([NMeL]I[NMeA][Aze][NMeCha][Sar][hPhe(3-Cl-4-CF3)]P[Ac5c][NMeT](Me)[NMeD]-Piperidide; lactam N-11) was tested, and the IC50 was 14 nM. Work on `CC[C@H](C)[C@@H]1NC(=O)[C@H](C)N(C)C(=O)C[C@@H](C)N(C)C(=O)[C@H](CC(C)C)NC(=O)C(C)(C)N(C)C(=O)[C@H](CC(C)C)NC(=O)[C@H](CCc2ccc(C(F)(F)F)c(Cl)c2)NC(=O)[C@@H](C)N(C)C(=O)[C@H](Cc2ccc(C)cc2)N(C)C(=O)CN(C)C(=O)CN(C)C1=O` [Compound 1381] (cyclo(I[Sar][Sar][NMePhe(4-Me)][dNMeA][hPhe(3-Cl-4-CF3)]L[NMeAib]L[NMedβ3hAla][NMeA])) yielded an IC50 of 150 nM. Work on `CCC[C@H]1C(=O)N[C@@H]([C@@H](C)CC)C(=O)N(C)[C@@H](C)C(=O)N2CC[C@H]2C(=O)N(C)[C@@H](CC2CCCCC2)C(=O)N(C)CC(=O)N[C@@H](CCc2ccc(C(F)(F)F)c(Cl)c2)C(=O)N2CCC[C@H]2C(=O)NC2(CCCC2)C(=O)N(C)[C@@H](C(C)C)C(=O)N[C@H](C)CC(=O)N1C` [Compound 1564] (cyclo([Ac5c][NMeV][d(β3hA)][NMeNva]I[NMeA][Aze][NMeCha][Sar][hPhe(3-Cl-4-CF3)]P)) yielded an IC50 of 38 nM. With `CC[C@H](C)[C@@H]1NC(=O)[C@H](CC(C)C)N(C)C(=O)C[C@@H](C(=O)N2CCCCC2)N(C)C(=O)[C@H](C(C)C)N(C)C(=O)C2(CCCC2)NC(=O)[C@@H]2CCCN2C(=O)[C@H](CCc2ccc(C(F)(F)F)c(Cl)c2)NC(=O)CN(C)C(=O)[C@H](CC2CCCCC2)N(C)C(=O)[C@@H]2CCN2C(=O)[C@H](COC2CC2)N(C)C1=O` [Compound 676] ([NMeL]I[NMeS](Cyclopropyl)[Aze][NMeCha][Sar][hPhe(3-Cl-4-CF3)]P[Ac5c][NMeV][NMeD]-Piperidide; lactam N-11) the IC50 was 31 nM. Work on `CC[C@H](C)[C@@H]1NC(=O)[C@H](CC(C)C)N(C)C(=O)C[C@@H](C(=O)N2CCCCC2)N(C)C(=O)[C@H](C2CCCCC2)N(C)C(=O)C2(CCCC2)NC(=O)[C@@H]2C[C@H](OCC(F)F)CN2C(=O)[C@H](CCc2ccc(C(F)(F)F)c(Cl)c2)NC(=O)CN(C)C(=O)[C@H](CC2CCCCC2)N(C)C(=O)CN(C)C(=O)CN(C)C1=O` [Compound 2123] ([NMeL]I[Sar][Sar][NMeCha][Sar][hPhe(3-Cl-4-CF3)][cisHyp](Ethyl(2,2-F2))[Ac5c][NMeChg][NMeD]-Piperidide; lactam N-11) yielded an IC50 of 1.5 nM. For `CC[C@H](C)[C@@H]1NC(=O)[C@H](CC(C)C)N(C)C(=O)C[C@@H](C(=O)N2CCCCC2)N(C)C(=O)[C@H](C2CCCCC2)N(C)C(=O)C2(CCCC2)NC(=O)[C@@H]2CCCN2C(=O)[C@H](CCc2ccc(C(F)(F)F)c(Cl)c2)NC(=O)CN(C)C(=O)[C@H](Cc2ccc(C)cc2)N(C)C(=O)[C@@H]2CCN2C(=O)[C@H](C)N(C)C1=O` [Compound 1795] ([NMeL]I[NMeA][Aze][NMePhe(4-Me)][Sar][hPhe(3-Cl-4-CF3)]P[Ac5c][NMeChg][NMeD]-Piperidide; lactam N-11), the IC50 was 0.99 nM. Molecule `CCCCN1CC(=O)N(C)[C@@H](Cc2ccc(Cl)cc2)C(=O)N(C)CC(=O)N[C@@H](CCc2ccc(C(F)(F)F)cc2)C(=O)N(C)[C@@H](CC(C)C)C(=O)NC(C)(C)C(=O)N(C)[C@@H](CC(C)C)C(=O)N[C@H](C)CC(=O)N(C)[C@@H](C)C(=O)N[C@@H]([C@@H](C)CC)C(=O)N(C)CC1=O` [Compound 602] (cyclo([Aib][NMeL][d(β3hA)][NMeA]I[Sar][NBuGly][NMePhe(4-Cl)][Sar][hPhe(4-CF3)][NMeL])) has an IC50 of 280 nM.
